Data set [1] is described as follows: Pharmacokinetic study of four steroidal saponins in rat plasma after oral administration of A. asphodeloides fractions (UPLC-MS/MS). Format: in vivo, Sprague-Dawley rats. To be noted: rat, in vivo, po; for AUC(0-t) / half-life / Cmax / Tmax: male, Sprague-Dawley, 400 mg/kg. Here is the method:
The dried A. asphodeloides were chopped into slices before using. The A. asphodeloides was immersed in water (1:10, w/v) and extracted twice by refluxing for 2 h. After filtration, the supernatant was condensed to a certain volume under reduced pressure, and 95% ethanol was added to the water extract filtrates until the concentration of ethanol was 80%. The precipitate was filtered as the macromolecular fraction (MF), the ethanol supernatant was concentrated under reduced pressure to a certain volume under vacuum and then purified by gradient elution with water, 40% ethanol and 70% ethanol from an AB-8 MARO porous resin column and then the water-eluted fraction was combined with the 40% ethanol-eluted fraction as the small molecule fraction (SF) and the 70% ethanol eluted fraction was the A. asphodeloides saponins extract (ASE). All of the residues were lyophilized and the resulting dry powder was stored at 4 °C before usage. The contents of four steroidal saponins in ASE dry powder were measured quantitatively by the external standard method using the same chromatography conditions as described above. The contents of timosaponin BII, anemarsaponin BIII, timosaponin AIII and timosaponin E1 in ASE were 429.12, 89.81, 59.13 and 41.25 mg/g, respectively.
Frozen plasma samples were unfrozen at room temperature and treated as follows: to each 200 µL plasma sample, 20 µL of IS (920 ng/mL ginsenoside Re) working solution and 600 µL of acetonitrile were added. After vortexing for 2 min and centrifugation at 13,000 rpm at 4 °C for 10 min the supernatant was transferred into a new tube and evaporated to dryness in a rotary evaporator at 39 °C and the residue was reconstituted in 100 µL of 0.1% formic acid–acetonitrile (50:50, v/v), vortexed for 2 min and centrifuged at 13,000 rpm at 4 °C for 10 min. The supernatant was transferred to an autosampler vial and an aliquot of 2 μL was injected onto the UPLC-MS/MS system for analysis.
Male Sprague-Dawley rats (250–280 g) were obtained from the Shanghai Slac Laboratory Animal Co., Ltd. (Shanghai, China). All animals were kept in an environmentally controlled breeding room (temperature: 20–25 °C, humidity: 55%–65%) for 1 week before the experiments started. Animal welfare and experimental procedures were strictly in accordance with the ethical norms of the Nanjing University of Chinese Medicine. All rats were fasted for 12 h with free access to water prior to the experiments, twenty-four rats were divided into four groups and then were given a single dose of ASE, ASE-SF, AS-MF, AS-M-SF. A 40 mg/mL ASE (the amount of MF, SF added to group AS-MF, ASE-SF, AS-M-SF were based on the proportion extracted from A. asphodeloides) aqueous solution in each group was administered orally at a dose of 400 mg/kg, which contained 171.61, 35.92, 23.62, 16.53 mg/kg of timosaponin BII, anemarsaponin BIII, timosaponin AIII, timosaponin E1, respectively.
About 400 μL blood samples were collected from venipuncture before intragastric gavage and at 0.083, 0.25, 0.5, 1, 1.5, 2, 4, 6, 8, 10, 12, 24 h after a single oral administration. The blood samples were immediately transferred to heparinized tubes and centrifuged at 3000 rpm for 10 min, and the supernatant was transferred into 2.0 mL Eppendorf tubes and stored at −80 °C prior to analysis. Blank plasma was obtained from the rat without oral administration and was used to investigate the assay development and validation.
To calculate the pharmacokinetic parameters of analytes in different group, concentrations–time dada were analyzed by DAS 3.2 software (Mathematical Pharmacology Professional Committee of China, Shanghai, China, 2011). Data were measured as the mean ± standard deviation (S.D.) with triplicate measurements. The identification of significances between different groups was executed with Student’s t-test. A p value < 0.05 was considered statistically significant.

Details of data set [2]: method as in PMID 20686523, PMID 23542670. To be noted: plasma concentration peak; cited from earlier work.

Where two headings read alike, the source gives them in different places.

Turning to `CC1=C(CCC(C)COC2OC(CO)C(O)C(O)C2O)OC2CC3C4CCC5CC(OC6OC(CO)C(O)C(O)C6OC6OC(CO)C(O)C(O)C6O)CCC5(C)C4CCC3(C)C12` (centres unmarked) [Anemarsaponin BIII, anemarsaponin BIII], in data set [1], the AUC(0-t) (commonly exposure summed from dosing to a finite time, without extrapolation to infinity) was 551 ± 75 ng·h/mL; the half-life (as a rule, the time in which the quantity being followed falls by half) was 7.63 ± 3.37 h; the Cmax (as a rule, the peak of the concentration-time curve) worked out at 34.5 ± 3.75 ng/mL; the Tmax (as a rule, the time at which the peak concentration occurs) was 3.75 ± 1.78 h. Also, in data set [1], the T1/2 result is recorded as “no obvious difference” and the “shape of plasma concentration-time curve” value was “double peak”. Moreover, the AUC(0-t) in data set [1] (AUC0–t) came to 257 ± 20.4 ng·h/mL. For the same molecule, in data set [1] (T1/2), the half-life is 2.75 ± 1.14 h.
Take `CC(CCC1(O)OC2C(O)C3C4CCC5CC(OC6OC(CO)C(O)C(O)C6OC6OC(CO)C(O)C(O)C6O)CCC5(C)C4CCC3(C)C2C1C)COC1OC(CO)C(O)C(O)C1O` (centres unmarked) [Timosaponin E1, timosaponin E1]: in data set [1], the exposure AUC(0-t) was found to be 286 ± 36.8 ng·h/mL, the half-life is 8.8 ± 3.83 h, the Cmax was 18.9 ± 1.54 ng/mL and the Tmax is 4 h. Moreover, in data set [1], the T1/2 result is on record as “no obvious difference” and the “shape of plasma concentration-time curve” value is on record as “double peak”. Also, the AUC(0-t) in data set [1] (AUC0–t) was 115 ± 5.35 ng·h/mL. In data set [1] (T1/2), this molecule gave a half-life of 2.95 ± 0.4 h.
Regarding `C[C@H]1CC[C@@]2(OC1)O[C@H]1C[C@H]3[C@@H]4CC[C@@H]5C[C@@H](O)CC[C@]5(C)[C@H]4CC[C@]3(C)[C@H]1[C@@H]2C` [sarsasapogenin], the “shape of plasma concentration-time curve” value in data set [2] was “single plasma concentration peak”.

Values taken from article PMC6331991, “Anemarrhena asphodeloides Non-Steroidal Saponin Components Alter the Pharmacokinetic Profile of Its Steroidal Saponins in Rat” (Molecules, 2015).
